Results on eleven compounds are retold here after US20260274859A1, “FUSED POLYCYCLIC DERIVATIVE AND USE THEREOF” (ZHEJIANG HISUN PHARMACEUTICAL CO., LTD., priority 2023, published 2026).

For experiment [1], the system named is A549 cells. Put plainly: Inhibition of proliferation of A549 cells (CCK8 or CTG). The format is cell-based. The settings on record: Homo sapiens, maximum concentration 10 μM, 5-fold dilution. Here is the method: (1) A549 cells in the logarithmic growth phase were digested with 0.25% trypsin and counted. The cells were inoculated into 96-well plates at 2000 cells per well, and the 96-well plates were placed in an incubator containing 5% CO2 at 37° C. for 12 h of culture.
(2) Six concentration gradients for the compounds to be tested (with the maximum drug concentration of 10 μM and 5-fold dilution) were set. After the cells adhered to the wall, the compounds to be tested were serially diluted with DMSO, then diluted with 1640 complete medium to reach a concentration 1000 times the final concentration, and added to the corresponding wells.
(§1) (3) After the corresponding concentrations of the compounds to be tested were added, the plates were incubated in an incubator with 5% carbon dioxide at 37° C., and then the cell viability rate at each drug concentration was determined by CCK8 or CTG method. In addition, the IC50 value was calculated.

Experiment [2] relates to HK-2 cells. Put plainly: Inhibition of proliferation of HK-2 cells (normal cells; CCK8 or CTG). The experiment is classed as cell-based. The settings on record: Homo sapiens, maximum concentration 10 μM, 5-fold dilution. The method, then:
(1) HK-2 cells in the logarithmic growth phase were digested with 0.25% trypsin and counted. The cells were inoculated into 96-well plates at 2000 cells per well, and the 96-well plates were placed and cultured in an incubator containing 5% CO2 at 37° C. for 12 h.
(2) Six concentration gradients for the compound to be tested (with the maximum drug concentration of 10 μM and 5-fold dilution) were set. After the cells adhered to the wall, the compounds to be tested were serially diluted with DMSO, then diluted with 1640 complete medium to reach a concentration 1000 times the final concentration, and added to the corresponding wells.
as §1

The IC50 is the midpoint of a concentration-inhibition curve. Read a low IC50 as inhibition by little substance.

Consider `CC(C)NC1CC(C(=O)Nc2sc3c(c2-c2nc4ccccc4s2)CCNC3)C1` (centres unmarked) [Compound 001, N-(3-(benzo[d]thiazol-2-yl)-4,5,6,7-tetrahydrothieno[2,3-c]pyridin-2-yl)-3-(isopropylamino)cyclobutane-1-carboxamide], for which the figures for the IC50 in experiment [1] and in experiment [2] were 0.49 nM and 759 nM, respectively.

Turning to `CC(C)NC1CC(C(=O)Nc2sc3c(c2-c2nc4ccc(C5=CCNCC5)cc4s2)CCN(C2CCCC2)C3)C1` (centres unmarked) [Compound 054, N-(6-cyclopentyl-3-(6-(1,2,3,6-tetrahydropyridin-4-yl)benzo[d]thiazol-2-yl)-4,5,6,7-tetrahydrothieno[2,3-c]pyridin-2-yl)-3-(isopropylamino)cyclobutane-1-carboxamide], inhibition in experiment [1] was half-maximal at 21.8 nM (IC50).

For `CC(C)NC1CCC(C(=O)Nc2sc3c(c2-c2nc4ccc(-c5ccc(N6CCNCC6)nc5)cc4s2)CCNC3)C1` (centres unmarked) [Compound 060, 3-(isopropylamino)-N-(3-(6-(6-(piperazin-1-yl)pyridin-3-yl)benzo[d]thiazol-2-yl)-4,5,6,7-tetrahydrothieno [2,3-c]pyridin-2-yl) cyclopentane-1-carboxamide], the IC50 in experiment [1] was 16.8 nM; in experiment [2], 1100 nM.

`CC(C)NCCCNc1sc2c(c1-c1nc3ccc(-c4ccc(N5CCNCC5)nc4)cc3s1)CCNC2` [Compound 082, N^1-isopropyl-N^3-(3-(6-(6-(piperazin-1-yl)pyridin-3-yl)benzo[d]thiazol-2-yl)-4,5,6,7-tetrahydrothieno[2,3-c]pyridin-2-yl) propane-1,3-diamine] gave an IC50 in experiment [2] of 4510 nM.

As for `CN(C)CCNC(=O)CNc1sc2c(c1-c1nc3ccccc3s1)CCNC2` [Compound 086, 2-((3-(benzo[d]thiazol-2-yl)-4,5,6,7-tetrahydrothieno [2,3-c]pyridin-2-yl)amino)-N-(2-(dimethylamino)ethyl)acetamide], the IC50 in experiment [2] worked out at 7560 nM.

In experiment [2], `CC(=O)N1CCc2c(sc(NC(=O)C3CC(NC(C)C)C3)c2-c2nc3ccc(-c4ccc(N5CCNCC5)nc4)cc3s2)C1` (centres unmarked) [Compound 122, N-(6-acetyl-3-(6-(6-(piperazin-1-yl)pyridin-3-yl)benzo[d]thiazol-2-yl)-4,5,6,7-tetrahydrothieno[2,3-c]pyridin-2-yl)-3-(isopropylamino)cyclobutane-1-carboxamide] returned an IC50 of 1040 nM.

As for `CC(C)NC1CCC(C(=O)Nc2sc3c(c2-c2nc4ccc(Br)cc4s2)CCNC3)CC1` (centres unmarked) [Compound 123, N-(3-(6-bromobenzo[d]thiazol-2-yl)-4,5,6,7-tetrahydrothieno[2,3-c]pyridin-2-yl)-4-(isopropylamino) cyclohexane-1-carboxamide], inhibition in experiment [2] was half-maximal at 937 nM (IC50).

Regarding `CC(C)NC1CCC(C(=O)Nc2sc3c(c2-c2nc4ccc(C5=CCNCC5)cc4s2)CCNC3)CC1` (centres unmarked) [Compound 124, 4-(isopropylamino)-N-(3-(6-(1,2,3,6-tetrahydropyridin-4-yl)benzo[d]thiazol-2-yl)-4,5,6,7-tetrahydrothieno [2,3-c]pyridin-2-yl) cyclohexane-1-carboxamide], the IC50 in experiment [1] was 7.37 nM; in experiment [2], 3260 nM.

On to `CN1CCN(c2sc3c(c2-c2nc4ccc(-c5ccc(N6CCNCC6)nc5)cc4s2)CCNC3)CC1` [Compound 126, 2-(2-(4-methylpiperazin-1-yl)-4,5,6,7-tetrahydrothieno [2,3-c]pyridin-3-yl)-6-(6-(piperazin-1-yl)pyridin-3-yl)benzo[d]thiazole], for which it took 1180 nM to reach half-maximal inhibition in experiment [2] (IC50).

For `CC(C)NC1CC(C(=O)N(C)c2sc3c(c2-c2nc4ccc(-c5ccc(N6CCNCC6)nc5)cc4s2)CCNC3)C1` (centres unmarked) [Compound 134, 3-(isopropylamino)-N-methyl-N-(3-(6-(6-(piperazin-1-yl)pyridin-3-yl)benzo [d]thiazol-2-yl)-4,5,6,7-tetrahydrothieno[2,3-c]pyridin-2-yl)cyclobutane-1-carboxamide], the IC50 in experiment [1] was 0.66 nM.

Compound `CC(=O)NC1CC(C(=O)Nc2sc3c(c2-c2nc4ccc(C5=CCN(C(C)=O)CC5)cc4s2)CCNC3)C1` (centres unmarked) [Compound 141] registered an IC50 in experiment [2] of 1460 nM.
